Results from patent US20260078120A1, “SUBSTITUTED PYRIDOPYRIMIDINONES” (MIRATI THERAPEUTICS, INC., priority 2022, published 2026).
pIC50: −log10 of the molar value. Read-outs that look alike come from different tables or passages of the source.

Key:
[1] = tested on: T47D (PI3Kα H1047R mutant) cells; experiment: CellTiter-Glo 2.0 luminescent cell viability assay, 72 hours, T47D cells; format: cell-based; conditions: for pIC50: T47D (PI3Kα H1047R mutant) cells, CellTiter-Glo, approximately 72 hours, read-out: T47D (H1047R mutant) Viability IC50
Procedure, shortened: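 Viability was measured by CellTiter-Glo 2.0 luminescence after approximately 72 h of compound exposure at 37° C. Plating was 1000 cells per well the day before dosing, with ten 1:4 dilutions from a 10 µM top concentration. Values as percent of vehicle were fitted by variable-slope log(inhibitor) regression to give IC50.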

[2] = tested on: SKBR3 (PI3Kα wild type) cells; experiment: CellTiter-Glo 2.0 luminescent cell viability assay, 72 hours, SKBR3 cells; format: cell-based; conditions: Homo sapiens, SK-BR-3, 72 h; for pIC50: SKBR3 (PI3Kα wild type) cells, CellTiter-Glo, approximately 72 hours, read-out: SKBR3 (WT) Viability IC50
Procedure, shortened: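 Viability measured via CTG luminescence following roughly 72 hours of compound exposure at 37° C. Dosing used a 10 um starting concentration diluted 1:4 over 10 points; percent-of-vehicle data fitted with a variable-slope four-parameter model for IC50.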

Structure (SMILES) | pIC50 ([1]; Homo sapiens, T47D, 72 h) | pIC50 [2] | pIC50 [1] | IC50 ([1]; Homo sapiens, T47D, 72 h, read-out: T47D (H1047R mutant) Viability IC50 (nM)) | IC50 ([2]; read-out: SKBR3 (WT) Viability IC50 (nM))
Cc1cc([C@@H](C)Nc2ccccc2C(=O)O)c2nc(N3CC4CC5CC4C3C5O)c(C)c(=O)n2c1 (stereo partly drawn) [Example 11-22, 2-(((1R)-1-(2-(6-hydroxyhexahydro-3,5-methanocyclopenta[b]pyrrol-1(2H)-yl)-3,7-dimethyl-4-oxo-4H-pyrido[1,2-a]pyrimidin-9-yl)ethyl)amino)benzoic acid] | 6.72 | < 5.00 | – | – | –
Cc1cc([C@@H](C)Nc2ccccc2C(=O)O)c2nc(N3CCN(c4ccncc4)CC3)c(C)c(=O)n2c1 [Example 11-441, (R)-2-((1-(3,7-dimethyl-4-oxo-2-(4-(pyridin-4-yl)piperazin-1-yl)-4H-pyrido[1,2-a]pyrimidin-9-yl)ethyl)amino)benzoic acid] | 6.39 | < 5.00 | – | – | –
Cc1cc([C@@H](C)Nc2ccccc2C(=O)O)c2nc(N3CCC[C@H](C(F)(F)F)C3)c(C#N)c(=O)n2c1 [Example 11-210, 2-(((R)-1-(3-cyano-7-methyl-4-oxo-2-((S)-3-(trifluoromethyl)piperidin-1-yl)-4H-pyrido[1,2-a]pyrimidin-9-yl)ethyl)amino)benzoic acid] | 6.44 | < 5.00 | – | – | –
Cc1cc([C@@H](C)Nc2ccccc2C(=O)O)c2nc(N3CCC4(CC3)CC4(F)F)c(C)c(=O)n2c1 [Example 11-219, (R)-2-((1-(2-(1,1-difluoro-6-azaspiro[2.5]octan-6-yl)-3,7-dimethyl-4-oxo-4H-pyrido[1,2-a]pyrimidin-9-yl)ethyl)amino)benzoic acid] | 6.31 | < 5.00 | – | – | –
Cc1cc([C@@H](C)Nc2ccc(F)nc2C(=O)O)c2nc(N3Cc4ccccc4C3)c(C)c(=O)n2c1 [Example 11-351, (R)-6-fluoro-3-((1-(2-(isoindolin-2-yl)-3,7-dimethyl-4-oxo-4H-pyrido[1,2-a]pyrimidin-9-yl)ethyl)amino)picolinic acid] | – | < 5.00 | 6.02 | – | –
Cc1cc([C@@H](C)Nc2ccccc2C(=O)O)c2nc(N3CCC(C(F)(F)F)CC3)c(C)c(=O)n2c1 [Example 11-71, (R)-2-((1-(3,7-dimethyl-4-oxo-2-(4-(trifluoromethyl)piperidin-1-yl)-4H-pyrido[1,2-a]pyrimidin-9-yl)ethyl)amino)benzoic acid] | 6.41 | < 5.00 | – | – | –
Cc1cc([C@H](C)OC(=O)c2nc(Cl)ccc2N)c2nc(N3CCCCC3)c(C#N)c(=O)n2c1 [Example 11-329, (S)-1-(3-cyano-7-methyl-4-oxo-2-(piperidin-1-yl)-4H-pyrido[1,2-a]pyrimidin-9-yl)ethyl 3-amino-6-chloropicolinate] | 5.96 | < 5.00 | – | – | –
Cc1cc([C@@H](C)Nc2ccccc2C(=O)O)c2nc(N3Cc4nc(C)sc4C3)c(C)c(=O)n2c1 [Example 11-15, (R)-2-((1-(3,7-dimethyl-2-(2-methyl-4,6-dihydro-5H-pyrrolo[3,4-d]thiazol-5-yl)-4-oxo-4H-pyrido[1,2-a]pyrimidin-9-yl)ethyl)amino)benzoic acid] | 6.81 | < 5.00 | – | – | –
COc1ccc(C2CCN(c3nc4c([C@@H](C)Nc5ccccc5C(=O)O)cc(C)cn4c(=O)c3C)CC2)cc1 [Example 11-39, (R)-2-((1-(2-(4-(4-methoxyphenyl)piperidin-1-yl)-3,7-dimethyl-4-oxo-4H-pyrido[1,2-a]pyrimidin-9-yl)ethyl)amino)benzoic acid] | 6.94 | < 5.00 | – | – | –
Cc1cc([C@@H](C)Nc2ccccc2C(=O)O)c2nc(-c3cccc(C(C)(C)C#N)c3)c(C)c(=O)n2c1 [Example 11-238, (R)-2-((1-(2-(3-(2-cyanopropan-2-yl)phenyl)-3,7-dimethyl-4-oxo-4H-pyrido[1,2-a]pyrimidin-9-yl)ethyl)amino)benzoic acid] | 6.51 | < 5.00 | – | – | –
Cc1cc([C@H](C)Nc2ccc(F)cc2C(=O)O)c2nc(N3Cc4ccccc4C3)c(C)c(=O)n2c1 [Example 11-365, (S)-5-fluoro-2-((1-(2-(isoindolin-2-yl)-3,7-dimethyl-4-oxo-4H-pyrido[1,2-a]pyrimidin-9-yl)ethyl)amino)benzoic acid] | 5.48 | < 5.00 | – | – | –
Cc1cc([C@@H](C)Nc2ccccc2C(=O)O)c2nc(N3CCN(c4ccccc4C#N)C[C@@H]3C)c(C)c(=O)n2c1 [Example 11-82, 2-(((R)-1-(2-((S)-4-(2-cyanophenyl)-2-methylpiperazin-1-yl)-3,7-dimethyl-4-oxo-4H-pyrido[1,2-a]pyrimidin-9-yl)ethyl)amino)benzoic acid] | 6.52 | < 5.00 | – | – | –
Cc1cc([C@@H](C)Nc2ccccc2C(=O)O)c2nc(N[C@@H](C)C3CC3)c(C#N)c(=O)n2c1 [Example 11-164, 2-(((R)-1-(3-cyano-2-(((S)-1-cyclopropylethyl)amino)-7-methyl-4-oxo-4H-pyrido[1,2-a]pyrimidin-9-yl)ethyl)amino)benzoic acid] | 6.64 | < 5.00 | – | – | –
Cc1cc([C@@H](C)Nc2ccccc2C(=O)O)c2nc(N3CCC(F)(F)[C@H]3C)c(C)c(=O)n2c1 [Example 11-123, 2-(((R)-1-(2-((R)-3,3-difluoro-2-methylpyrrolidin-1-yl)-3,7-dimethyl-4-oxo-4H-pyrido[1,2-a]pyrimidin-9-yl)ethyl)amino)benzoic acid] | 6.55 | < 5.00 | – | – | –
Cc1cc([C@@H](C)Nc2ccccc2C(=O)O)c2nc(N3CC[C@@H]3C(F)(F)F)c(C)c(=O)n2c1 [Example 11-98, 2-(((R)-1-(3,7-dimethyl-4-oxo-2-((R)-2-(trifluoromethyl)azetidin-1-yl)-4H-pyrido[1,2-a]pyrimidin-9-yl)ethyl)amino)benzoic acid] | 6.33 | < 5.00 | – | – | –
Cc1cc([C@@H](C)Nc2ccccc2C(=O)O)c2nc(N3CCc4sc(C)nc4C3)c(C#N)c(=O)n2c1 [Example 11-305, (R)-2-((1-(3-cyano-7-methyl-2-(2-methyl-6,7-dihydrothiazolo[4,5-c]pyridin-5(4H)-yl)-4-oxo-4H-pyrido[1,2-a]pyrimidin-9-yl)ethyl)amino)benzoic acid] | 6.30 | < 5.00 | – | – | –
Cc1cc([C@@H](C)Nc2ccccc2C(=O)O)c2nc(N3C4CCC3CC(c3ccnn3C)C4)c(C)c(=O)n2c1 (stereo partly drawn) [Example 10-2, 2-(((1R)-1-(3,7-dimethyl-2-(3-(1-methyl-1H-pyrazol-5-yl)-8-azabicyclo[3.2.1]octan-8-yl)-4-oxo-4H-pyrido[1,2-a]pyrimidin-9-yl)ethyl)amino)benzoic acid] | – | – | – | 4.72 nM | > 10000 nM
COc1ccc(-c2cc(=O)n3cc(C)cc(C(C)Nc4ccccc4C(=O)O)c3n2)cc1 (stereo not shown) [Example 11-392, 2-((1-(2-(4-methoxyphenyl)-7-methyl-4-oxo-4H-pyrido[1,2-a]pyrimidin-9-yl)ethyl)amino)benzoic acid] | 5.39 | < 5.00 | – | – | –
Cc1cc(C(C)NCCC(=O)O)c2nc(N3CCCCC3)cc(=O)n2c1 (stereo not shown) [Example 11-386] | < 5.00 | < 5.00 | – | – | –
Cc1cc([C@@H](C)Nc2ccccc2C(=O)O)c2nc(N3CCN(c4cccc(C#N)c4)C[C@@H]3C)c(C)c(=O)n2c1 [Example 11-86, 2-(((R)-1-(2-((S)-4-(3-cyanophenyl)-2-methylpiperazin-1-yl)-3,7-dimethyl-4-oxo-4H-pyrido[1,2-a]pyrimidin-9-yl)ethyl)amino)benzoic acid] | 6.83 | < 5.00 | – | – | –
